According to patent US8492375B2, “1-benzoyl substituted diazepine derivatives as selective histamine H3 receptor agonists” (Glaxo Group Limited, priority 2003, dated 2013):
Structures can show the parent of a compound that is named as a salt.

Experiments:
human H1 receptor = target: T1, human H1 receptor (Homo sapiens, UniProt P35367); assay: Histamine H1 functional antagonist assay (FLIPR, histamine induced increase in fluorescence); type: cell-based; conditions: Chinese hamster ovary cells stably expressing the human H1 receptor; read-out: antagonism pKb, histamine H1 functional antagonist assay (converted)
T1 construct: expressed in transfected cells
T1 sequence (P35367 whole entry): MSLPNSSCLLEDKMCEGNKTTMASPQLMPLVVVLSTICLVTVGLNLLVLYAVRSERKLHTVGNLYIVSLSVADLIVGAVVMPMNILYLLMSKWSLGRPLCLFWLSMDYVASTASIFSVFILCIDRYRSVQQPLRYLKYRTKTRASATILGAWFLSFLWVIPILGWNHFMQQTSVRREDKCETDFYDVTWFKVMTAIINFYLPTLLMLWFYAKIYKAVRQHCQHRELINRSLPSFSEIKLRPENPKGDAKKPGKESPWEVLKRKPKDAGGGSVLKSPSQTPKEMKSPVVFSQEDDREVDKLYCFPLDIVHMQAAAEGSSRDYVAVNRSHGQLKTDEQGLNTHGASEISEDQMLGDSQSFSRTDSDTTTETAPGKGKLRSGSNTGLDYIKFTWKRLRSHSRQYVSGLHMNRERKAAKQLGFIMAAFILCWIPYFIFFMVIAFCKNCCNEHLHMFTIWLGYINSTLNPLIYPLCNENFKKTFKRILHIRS
Procedure: (iii) Generation of Histamine H1 Cell Line
The human H1 receptor was cloned using known procedures described in the literature [Biochem. Biophys. Res. Commun.
(III) Histamine H1 Functional Antagonist Assay
Compounds are assayed in a black walled clear bottom 384-well plate with cells seeded at 10000 cells/well. […] Each well is treated with 10 μl of a solution of FLUO4AM (10 μM in Tyrodes buffer at pH 7.40) and plates are then incubated for 60 minutes at 37° C. Wells are then washed with Tyrodes buffer using a EMBLA cell washer system, leaving 400 buffer in each well, and then treated with 100 of test compound in Tyrodes buffer. Each plate is incubated for 30 min to allow equilibration of the test compound with the receptor. Each well is then treated with 100 of histamine solution in Tyrodes buffer.
Functional antagonism is indicated by a suppression of histamine induced increase in fluorescence, as measured by the FLIPR system (Molecular Devices). By means of concentration effect curves, functional potencies are determined using standard pharmacological mathematical analysis.

histamine H3 receptor = histamine H3 receptor (Homo sapiens, UniProt Q9Y5N1); assay: Histamine H3 functional antagonist assay ([35S]GTPγS binding, SPA, membranes of CHO K1 cells); conditions: pKb, antagonism of 0.3 μM histamine, membranes with human H3 receptor
histamine H3 receptor, sequence (Q9Y5N1 whole entry): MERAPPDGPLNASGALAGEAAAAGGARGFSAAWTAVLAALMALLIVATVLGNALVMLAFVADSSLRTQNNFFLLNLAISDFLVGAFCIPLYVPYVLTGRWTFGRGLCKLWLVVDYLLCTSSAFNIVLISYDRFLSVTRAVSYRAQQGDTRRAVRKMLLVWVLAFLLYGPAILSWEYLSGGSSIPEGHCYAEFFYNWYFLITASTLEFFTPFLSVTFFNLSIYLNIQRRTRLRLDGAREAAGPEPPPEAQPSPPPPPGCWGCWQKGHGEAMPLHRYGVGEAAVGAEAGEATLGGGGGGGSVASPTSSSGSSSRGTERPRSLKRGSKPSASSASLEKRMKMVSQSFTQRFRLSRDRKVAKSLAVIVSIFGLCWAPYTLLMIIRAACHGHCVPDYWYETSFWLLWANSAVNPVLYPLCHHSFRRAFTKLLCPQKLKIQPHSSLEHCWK
Procedure: Ligated DNA was transformed into competent DH5α E. coli host bacterial cells and plated onto Luria Broth (LB) agar containing Zeocin™ (an antibiotic which allows the selection of cells expressing the sh ble gene which is present on pGene and pSwitch) at 50 μg ml^−1. Colonies containing the re-ligated plasmid were identified by restriction analysis. DNA for transfection into mammalian cells was prepared from 250 ml cultures of the host bacterium containing the pGeneH3 plasmid and isolated using a DNA preparation kit (Qiagen Midi-Prep) as per manufacturers guidelines (Qiagen).
CHO K1 cells previously transfected with the pSwitch regulatory plasmid (InVitrogen) were seeded at 2×10e6 cells per T75 flask in Complete Medium, containing Hams F12 (GIBCOBRL, Life Technologies) medium supplemented with 10% v/v dialysed foetal bovine serum, L-glutamine, and hygromycin (100 μg ml^−1), 24 hours prior to use. Plasmid DNA was transfected into the cells using Lipofectamine plus according to the manufacturers guidelines (InVitrogen). 48 hours post transfection cells were placed into complete medium supplemented with 500 μg ml^−1 Zeocin™
10-14 days post selection 10 nM Mifepristone (InVitrogen), was added to the culture medium to induce the expression of the receptor. […] Approximately 1×10e7 cells were examined for receptor expression by staining with a rabbit polyclonal antibody, 4a, raised against the N-terminal domain of the histamine H3 receptor, incubated on ice for 60 minutes, followed by two washes in sorting medium. […] Following two further washes with Sorting Medium, cells were filtered through a 50 μm Filcon™ (BD Biosciences) and then analysed on a FACS Vantage SE Flow Cytometer fitted with an Automatic Cell Deposition Unit. […] Positively stained cells were sorted as single cells into 96-well plates, containing Complete Medium containing 500 μg ml^−1 Zeocin™ and allowed to expand before reanalysis for receptor expression via antibody and ligand binding studies.
(ii) Membrane Preparation from Cultured Cells
All steps of the protocol are carried out at 4° C. and with pre-cooled reagents. The cell pellet is resuspended in 10 volumes of buffer A2 containing 50 mM N-2-hydroxyethylpiperazine-N′-2-ethanesulfonic acid (HEPES) (pH 7.40) supplemented with 10e-4M leupeptin (acetyl-leucyl-leucyl-arginal; Sigma L2884), 25 μg/ml bacitracin (Sigma B0125), 1 mM ethylenediamine tetra-acetic acid (EDTA), 1 mM phenylmethylsulfonyl fluoride (PMSF) and 2×10e-6M pepstain A (Sigma). The cells are then homogenised by 2×15 second bursts in a 1 liter glass Waring blender, followed by centrifugation at 500 g for 20 minutes. The supernatant is then spun at 48,000 g for 30 minutes. The pellet is resuspended in 4 volumes of buffer A2 by vortexing for 5 seconds, followed by homogenisation in a Dounce homogeniser (10-15 strokes). At this point the preparation is aliquoted into polypropylene tubes and stored at −70° C.
(II) Histamine H3 Functional Antagonist Assay
The plate is then incubated on a shaker at room temperature for 30 minutes followed by centrifugation for 5 minutes at 1500 rpm. The plate is read between 3 and 6 hours after completion of centrifuge run in a Wallac Microbeta counter on a 1 minute normalised tritium count protocol. Data is analysed using a 4-parameter logistic equation. Basal activity used as minimum i.e. histamine not added to well.

Kb (human H1 receptor) | Kb (histamine H3 receptor) | SMILES
> 1000 nM | ≤ 1 nM | N#Cc1ccc(-c2ccc(C(=O)N3CCCN(C4CCC4)CC3)cc2)cn1 [Example 14, 5-{4-[(4-Cyclobutylhexahydro-1H-1,4-diazepin-1-yl)carbonyl]phenyl}-2-cyanopyridine hydrochloride]
– | ≤ 1 nM | O=C(c1ccc(-c2ncco2)cc1)N1CCCN(C2CCC2)CC1 [Example 56, 1-Cyclobutyl-4-{[4-(1,3-oxazol-2-yl)phenyl]carbonyl}hexahydro-1H-1,4-diazepine hydrochloride]
> 1000 nM | ≤ 1 nM | O=C(c1ccc(-n2cnnn2)cc1)N1CCCN(C2CCC2)CC1 [Example 7, 1-Cyclobutyl-4-{[4-tetrazol-1-yl)phenyl]carbonyl}hexahydro-1H-1,4-diazepine hydrochloride]
> 1000 nM | ≤ 1 nM | O=C(c1ccc(-c2ccc(C(F)(F)F)nn2)cc1)N1CCCN(C2CCC2)CC1 [Example 22, 1-Cyclobutyl-4-({4-[6-(trifluoromethyl)-3-pyridazinyl]phenyl}carbonyl)hexahydro-1H-1,4-diazepine hydrochloride]
> 1000 nM | ≤ 1 nM | O=C(c1ccc(-c2nc(-c3ccc(F)cc3)cs2)cc1)N1CCCN(C2CCC2)CC1 [Example 8, 1-Cyclobutyl-4-({4-[4-(4-fluorophenyl)-1,3-thiazol-2-yl]phenyl}carbonyl) hexahydro-1H-1,4-diazepine hydrochloride]
> 1000 nM | – | CC(C)N1CCCN(C(=O)c2ccc(OC3CCOCC3)cc2)CC1 [Example 10, 1-(Isopropyl)-4-{[4-(tetrahydro-2H-pyran-4-yloxy)phenyl]carbonyl}hexahydro-1H-1,4-diazepine hydrochloride]
> 1000 nM | – | CC(C)N1CCCN(C(=O)c2ccc(-c3ccc(C#N)nc3)cc2)CC1 [Example 15, 5-(4-{[4-(1-Isopropyl)hexahydro-1H-1,4-diazepin-1-yl]carbonyl}phenyl)-2-cyanopyridine hydrochloride]
> 1000 nM | < 0.316 nM | CC(=O)c1ccc(-c2ccc(C(=O)N3CCCN(C4CCC4)CC3)cc2)cc1 [Example 2, 1-{4′-[(4-Cyclobutylhexahydro-1H-1,4-diazepin-1-yl)carbonyl]-4-biphenylyl}ethanone hydrochloride]
> 1000 nM | < 0.316 nM | O=C(c1ccc(-c2ccc(C(F)(F)F)nc2)cc1)N1CCCN(C2CCC2)CC1 [Example 11, 1-Cyclobutyl-4-({4-[6-(trifluoromethyl)-3-pyridinyl]phenyl}carbonyl)hexahydro-1H-1,4-diazepine hydrochloride]
– | < 0.316 nM | Cc1noc(-c2ccc(C(=O)N3CCCN(C4CCC4)CC3)cc2)n1 [Example 58, 1-Cyclobutyl-4-{[4-(3-methyl-1,2,4-oxadiazol-5-yl)phenyl]carbonyl}hexahydro-4H-1,4-diazepine hydrochloride]
> 1000 nM | ≤ 1 nM | CNC(=O)c1ccc(-c2ccc(C(=O)N3CCCN(C(C)C)CC3)cc2)cn1 [Example 16, N-Methyl-5-(4-{[4-(1-isopropyl)hexahydro-1H-1,4-diazepin-1-yl]carbonyl}phenyl)-2-pyridinecarboxamide hydrochloride]
> 1000 nM | ≤ 1 nM | O=C(c1ccc(N2CCS(=O)(=O)CC2)cc1)N1CCCN(C2CCC2)CC1 [Example 9, 1-Cyclobutyl-4-{[4-(1,1-dioxido-4-thiomorpholinyl)phenyl]carbonyl}hexahydro-1H-1,4-diazepine hydrochloride]
> 1000 nM | ≤ 1 nM | O=C(c1ccc(-c2cnc(C(F)(F)F)nc2)cc1)N1CCCN(C2CCC2)CC1 [Example 23, 1-Cyclobutyl-4-({4-[2-(trifluoromethyl)-5-pyrimidinyl]phenyl}carbonyl)hexahydro-1H-1,4-diazepine hydrochloride]
> 1000 nM | < 0.316 nM | N#Cc1ccc(-c2ccc(C(=O)N3CCCN(C4CCC4)CC3)cc2)cc1 [Example 1, 4′-[(4-Cyclobutylhexahydro-1H-1,4-diazepin-1-yl)carbonyl]-4-biphenylcarbonitrile hydrochloride]
> 1000 nM | < 0.316 nM | N#Cc1ccc(-c2ccc(C(=O)N3CCCN(C4CCC4)CC3)cc2)nc1 [Example 12, 6-{4-[(4-Cyclobutylhexahydro-1H-1,4-diazepin-1-yl)carbonyl]phenyl}-3-cyanopyridine hydrochloride]
> 1000 nM | ≤ 1 nM | CNC(=O)c1ccc(-c2ccc(C(=O)N3CCCN(C4CCC4)CC3)cc2)cn1 [Example 13, 5-{4-[(4-Cyclobutylhexahydro-1H-1,4-diazepin-1-yl)carbonyl]phenyl}-N-methyl-2-pyridinecarboxamide hydrochloride]
